Experimental data from US6747022B2, “Calcium salts of 1,5-benzodiazepine derivatives, process for producing the salts and drugs containing the same” (Zeria Pharmaceutical Co., Ltd., priority 1999, dated 2004).

How the values were obtained:
[1] = system: pentagastrin-stimulated gastric acid secretion; experiment: Test on inhibition of pentagastrin-stimulated gastric acid secretion; assay type: in vivo, rat; conditions: SD rats, 0.03 mg/kg intraduodenal, acid output 1 to 4 hours after administration, pentagastrin 15 μg/kg/hr
Description: Test on Inhibition of Pentagastrin-stimulated Gastric Acid Secretion
Male Sprague-Dawley (SD)-strain rats were used. Under anesthesia with ether, each rat was subjected to the operation for pylorus ligation and placement of a duodenal catheter and gastric fistula. After completion of the operation, each rat was held in a Bollman-type cage and constantly infused with 15 μg/kg/hr of pentagastrin through the tail vein. Test compounds were suspended in a 0.5% sodium carboxymethylcellulose solution (which will hereinafter be called “vehicle”). Administration of the vehicle or test compound was carried out through the intraduodenal catheter 1 hour after the beginning of pentagastrin infusion. Acidity of the collected gastric juice was measured by an automatic titrator. Acid output was determined by multiplying the volume of gastric juice by its acidity. Inhibition of acid output for 3 hours from 1 to 4 hours after administration of the test compound was calculated by the following equation.
Inhibition (%)=(mean acid output of vehicle administered group−mean acid output of compound group)/mean acid output of vehicle administered group×100

[2] = Test on hygroscopicity under high humidity conditions (1), 0.5 g sample; assay type: physicochemical
Description: (§1) Test 3 (Test on Hygroscopicity under High Humidity Conditions)
(§2) (1) A saturated aqueous solution of potassium sulfate was charged in a desiccator and was allowed to stand for at least one day in a temperature controlled room set at 25° C. The sample (0.5 g) was stored and weighed. Hygroscopicity was measured by its weight change. The relative humidity at that time was 97.3% RH.

CCK-B receptor = target: T1, CCK-B receptor (Cavia porcellus, UniProt H0VZC5); experiment: Binding test to CCK-B receptor ([3H]CCK-8, cerebral cortex membranes); design: species or system guinea pig; conditions: inhibition of specific binding of 1.0 nM [3H]CCK-8, 25° C., 2 hours
T1 sequence (H0VZC5 1-426): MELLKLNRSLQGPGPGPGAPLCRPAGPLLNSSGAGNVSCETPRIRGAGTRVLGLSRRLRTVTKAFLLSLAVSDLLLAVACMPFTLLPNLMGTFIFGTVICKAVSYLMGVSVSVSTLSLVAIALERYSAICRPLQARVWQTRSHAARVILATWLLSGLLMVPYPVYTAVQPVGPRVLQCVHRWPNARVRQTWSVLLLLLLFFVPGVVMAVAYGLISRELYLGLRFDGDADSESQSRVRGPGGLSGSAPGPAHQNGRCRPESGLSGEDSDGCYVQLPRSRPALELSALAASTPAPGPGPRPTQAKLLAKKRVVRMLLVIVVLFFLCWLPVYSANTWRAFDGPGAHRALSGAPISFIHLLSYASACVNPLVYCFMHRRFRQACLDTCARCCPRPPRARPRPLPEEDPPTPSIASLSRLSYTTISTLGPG
Description: Binding Test to CCK-B Receptor
The cerebral cortex excised from a Hartley-strain male guinea pig was homogenized in 50 times the amount of a 50 mM Tris-HCl buffer (pH 7.4), followed by centrifugal separation at 50000×g for 10 minutes. Addition of the same amount of the same buffer to the precipitate thus obtained and centrifugation were repeated 2 times. The final precipitate was homogenized in a 10 mM HEPES buffer (pH 6.5) containing 5 mM magnesium chloride, 1 mM EGTA, 0.25 mg/ml bacitracin and 130 mM sodium chloride, and used as the receptor preparation.
Binding assay was conducted by adding, to 50 μl of a test compound solution, 50 μl of a [^3H]CCK-8 solution having the final concentration of 1.0 nM and 900 μl of the receptor preparation (protein content: 800 μg/tube) and reacting them at 25° C. for 2 hours. After completion of the reaction, the mixture was suction filtrated through a Whatman GF/B filter treated in advance with 0.1% BSA. Rightly after filtration, the filter was washed four times, each with 3 ml of ice-cold 50 mM Tris-HCl buffer (pH 7.4). After a scintillator was added to the filter and the resulting filter was then allowed to stand for a day, radioactivity on the filter was measured by a liquid scintillation counter. The binding of [^3H]CCK-8 in the presence of 1 μM CCK-8 when the test compound was not added was defined as non-specific binding. […]

[3] = Test on hygroscopicity under high humidity conditions (2), 0.1 g sample; assay type: physicochemical
Description: as §1
as §2, with “(2)” for “(1)”, “(0.1” for “(0.5”

Compound: CC(C)(C)C(=O)CN1C(=O)[C@H](NC(=O)Nc2cccc(C(=O)[O-])c2)CN(C2CCCCC2)c2ccccc21.CC(C)(C)C(=O)CN1C(=O)[C@H](NC(=O)Nc2cccc(C(=O)[O-])c2)CN(C2CCCCC2)c2ccccc21.[Ca+2] [Compound of Example 1 (Ca salt), calcium (R)-(−)-3-[3-(1-tert-butylcarbonylmethyl-2-oxo-5-cyclohexyl-1,3,4,5-tetrahydro-2H-1,5-benzodiazepin-3-yl)ureido]benzoate]
- Inhibition of acid output (%) [1]: 42.3%
- Hygroscopicity compared with the corresponding Na salt ([2]; 25° C., 97.3% RH, versus Na salt of Compound of Example 143 in WO98/25911): lower hygroscopicity
- Weight change (%) when stored at 25° C. and 97.3% RH ([2]; storage time 0 day): 0%
- Weight change (%) when stored at 25° C. and 97.3% RH ([2]; storage time 1 day): 4.61%
- Weight change (%) when stored at 25° C. and 97.3% RH ([2]; storage time 2 days): 5.00%
- Weight change (%) when stored at 25° C. and 97.3% RH ([2]; storage time 3 days): 4.94%
- Weight change (%) when stored at 25° C. and 97.3% RH ([2]; storage time 4 days): 4.97%
- Weight change (%) when stored at 25° C. and 97.3% RH ([2]; storage time 10 days): 5.43%
- Weight change (%) when stored at 25° C. and 97.3% RH ([2]; storage time 14 days): 5.41%
- IC50 (CCK-B receptor): 1.68 nM

Compound: CC(C)(C)C(=O)CN1C(=O)[C@H](NC(=O)Nc2cccc(C(C)(C)C(=O)O)c2)CN(C2CCCCC2)c2ccccc21 [Compound of Example 4 in the free form, (R)-(−)-2-[3-[3-(1-tert-butylcarbonylmethyl-2-oxo-5-cyclohexyl-1,3,4,5-tetrahydro-2H-1,5-benzodiazepin-3-yl)ureido]phenyl]-2-methylpropionic acid, reference compound]
- Inhibition of acid output (%) ([1]; Table 2): 13.7%

Compound: calcium (R)-(−)-2-[3-[3-(1-tert-butylcarbonylmethyl-2-oxo-5-cyclohexyl-1,3,4,5-tetrahydro-2H-1,5-benzodiazepin-3-yl)ureido]phenyl]-2-methylpropionate [Compound of Example 4 (Ca salt)]
- Inhibition of acid output (%) ([1]; Table 2): 46.1%
- Hygroscopicity compared with the corresponding Na salt ([3]; 25° C., 97.3% RH, versus Compound of Example 5 in WO99/64403): lower hygroscopicity
- Weight change (%) when stored at 25° C. and 97.3% RH ([3]; storage days 0): 0%
- Weight change (%) when stored at 25° C. and 97.3% RH ([3]; storage days 2): 8.15%
- Weight change (%) when stored at 25° C. and 97.3% RH ([3]; storage days 4): 7.87%
- Weight change (%) when stored at 25° C. and 97.3% RH ([3]; storage days 7): 8.38%
- Weight change (%) when stored at 25° C. and 97.3% RH ([3]; storage days 9): 9.07%
- Weight change (%) when stored at 25° C. and 97.3% RH ([3]; storage days 11): 8.14%
- Weight change (%) when stored at 25° C. and 97.3% RH ([3]; storage days 18): 8.51%
- Weight change (%) when stored at 25° C. and 97.3% RH ([3]; storage days 30): 8.23%

Compound: CC(C)(C)C(=O)CN1C(=O)[C@H](NC(=O)Nc2cccc(C(=O)O)c2)CN(C2CCCCC2)c2ccccc21 [Compound of Example 1 in the free form, (R)-(−)-3-[3-(1-tert-butylcarbonylmethyl-2-oxo-5-cyclohexyl-1,3,4,5-tetrahydro-2H-1,5-benzodiazepin-3-yl)ureido]benzoic acid, reference compound]
- Inhibition of acid output (%) [1]: 4.8%
- IC50 (CCK-B receptor): 1.45 nM
